Laboratory results reported in the Kinase Knowledgebase extract (Sharma et al. 2016).

What was measured:
CDK2 (human) [1] = target: CDK2 (human) (UniProt P24941); assay: Enzyme Assay
CDK2 (human) [2] = target: CDK2 (human) (UniProt P24941); assay: Cell-Based Assay

SMILES	IC50 (CDK2 (human) [1]) [µM]	IC50 (CDK2 (human) [2]; mda-mb-435) [µM]	IC50 (CDK2 (human) [2]; rko) [µM]
O=C1Nc2ccc(F)c3c(N4CC[C@@H](O)C4)cc(-c4ccc[nH]4)c1c23	≤ 10	–	–
NCCSc1cc(-c2ccc[nH]2)c2c3c(ccc(F)c13)NC2=O	≤ 10	–	–
O=C1Nc2ccc(F)c3c(N4CCOCC4)cc(-c4ccc[nH]4)c1c23	≤ 10	–	–
CC(C)(N)CNc1cc(-c2ccc[nH]2)c2c3c(ccc(F)c13)NC2=O	≤ 10	–	–
CCC(C)c1cc(-c2ccc[nH]2)c2c3c(ccc(F)c13)NC2=O (stereo not given)	≤ 10	–	–
CCc1cc(-c2ccc[nH]2)c2c3c(ccc(F)c13)NC2=O	≤ 10	–	–
O=C1Nc2ccc(F)c3c(N4CCNCC4)cc(-c4ccc[nH]4)c1c23	≤ 10	–	–
O=C1Nc2ccc(F)c3c(N4CCNC4=O)cc(-c4ccc[nH]4)c1c23	≤ 10	–	–
O=C1Nc2ccc(F)c3c(N4CCCC(CO)C4)cc(-c4ccc[nH]4)c1c23 (stereo not given)	≤ 10	≤ 10	≤ 10
O=C1Nc2ccc(F)c3c(N4CCC(O)CC4)cc(-c4ccc[nH]4)c1c23	≤ 10	–	–
O=C1Nc2ccc(F)c3c(NCCO)cc(-c4ccc[nH]4)c1c23	≤ 10	–	–
O=C1Nc2ccc(F)c3c2C1=C(c1ccc[nH]1)CC3	≤ 10	–	–
O=C1Nc2ccc(F)c3c(S(=O)(=O)CCO)cc(-c4ccc[nH]4)c1c23	≤ 10	–	–
O=C1Nc2ccc(F)c3c(SCCO)cc(-c4ccc[nH]4)c1c23	≤ 10	–	–
COc1cc(-c2ccc[nH]2)c2c3c(ccc(F)c13)NC2=O	≤ 10	–	–
O=C1Nc2ccc(F)c3c(OCCCO)cc(-c4ccc[nH]4)c1c23	≤ 10	–	–
CCN(CC)CCNc1cc(-c2ccc[nH]2)c2c3c(ccc(F)c13)NC2=O	≤ 10	–	–
CC(=O)NCCNc1cc(-c2ccc[nH]2)c2c3c(ccc(F)c13)NC2=O	≤ 10	–	–
O=C1Nc2ccc(F)c3c([S+]([O-])CCO)cc(-c4ccc[nH]4)c1c23 (stereo not given)	–	–	≤ 10
O=C1Nc2ccc(F)c3c(OCCO)cc(-c4ccc[nH]4)c1c23	≤ 10	–	–
NCC[S+]([O-])c1cc(-c2ccc[nH]2)c2c3c(ccc(F)c13)NC2=O (stereo not given)	≤ 10	≤ 10	≤ 10
O=C1Nc2ccc(F)c3ccc(-c4ccc[nH]4)c1c23	≤ 10	–	–
Cc1c[nH]c(-c2cc(SCCN)c3c(F)ccc4c3c2C(=O)N4)c1C	≤ 10	–	–
NCCCNc1cc(-c2ccc[nH]2)c2c3c(ccc(F)c13)NC2=O	≤ 10	–	–
NCCS(=O)(=O)c1cc(-c2ccc[nH]2)c2c3c(ccc(F)c13)NC2=O	≤ 10	–	–
NCCOc1cc(-c2ccc[nH]2)c2c3c(ccc(F)c13)NC2=O	≤ 10	–	–
CCOc1cc(-c2ccc[nH]2)c2c3c(ccc(F)c13)NC2=O	≤ 10	–	–
O=C1Nc2ccc(F)c3c(N4CCCC(O)C4)cc(-c4ccc[nH]4)c1c23 (stereo not given)	≤ 10	≤ 10	≤ 10
Cc1cc(-c2ccc[nH]2)c2c3c(ccc(F)c13)NC2=O	≤ 10	–	–
